Test results reported in patent publication US8022208B2, “Benzene derivative or salt thereof” (Astellas Pharma Inc., priority 2005, dated 2011).

Tests used:
human factor Xa = biological target: T1, human factor Xa (Homo sapiens, UniProt P00742); test: Enzyme inhibition by synthetic substrate method (S-2222); type: biochemical; settings: human factor Xa 0.025 U/ml, synthetic substrate S-2222, pH 8.4, 37° C., 10 minutes
T1 construct: purchased Enzyme Research Labs
Protocol: 2) Test of Measuring Enzyme Inhibition by Synthetic Substrate Method:
25 μl of a reaction buffer (pH 8.4), 5 μl of a test compound dissolved in DMSO or DMSO alone, and 10 μl of a synthetic substrate, 2 mM S-2222 (Chromogenix) were added to a 96-well microplate, then 10 μl of 0.025 U/ml human factor Xa was added thereto, and reacted at 37° C. for 10 minutes, and then the absorbance change at 405 nm was measured with Molecular Devices' Spectramax 340PC^384, and the IC50 value was calculated.

human plasma = test: Extrinsic coagulation time (PT) in human plasma; settings: HemosIL RecombiPlasTin
Protocol: 3) Extrinsic Coagulation Time (PT):
2 μl of a test compound dissolved in DMSO or DMSO alone, and 50 μl of physiological saline were added to 50 μl of human plasma warmed at 37° C. for 1 minute, then 100 μl of HemosIL RecombiPlasTin (Instrumentation Laboratory) was added, and the coagulation time was measured. For measuring the coagulation time, used was Amelung's KC10A. The CT2 value (the concentration for 2-fold prolongation of the coagulation time with DMSO) was calculated through linear regression, by plotting the relative value (fold) of the coagulation time to the control and the test compound concentration.

mouse plasma = test: Ex vivo coagulation time with mice (oral administration), extrinsic coagulation time (PT); type: in vivo, male ICR mice; settings: oral 100 mg/kg, 30 minutes after administration
Protocol: 4) Test of Measuring Ex Vivo Coagulation Time with Mice (Oral Administration):
To test animals of male ICR mice (body weight, about 40 g, SLC) that had been fasted for 12 hours or longer, a solution or suspension of a test compound dissolved in 0.5% methyl cellulose was forcedly orally administered (100 mg/kg), using a feeding needle; and after 30 minutes and after 2 hours, under anesthesia with diethyl ether, 1 ml of blood was collected from the mice through their postcaval vein in 3.8% sodium citrate to be 1/10 by volume, and centrifuged at 12000 rpm for 3 minutes to separate plasma therefrom. The extrinsic coagulation time (PT) and the intrinsic coagulation time (APTT) for this plasma were measured according to the following methods a) and b).
a) Extrinsic Coagulation Time (PT):
50 μl of the mouse plasma was warmed at 37° C. for 1 minute, and 100 μl of HemosIL RecombiPlasTin was added, and the coagulation time was counted. For measuring the coagulation time, used was Amelung's KC10A. The mouse plasma coagulation time with no test compound administration was control; and the coagulation time prolonging activity of the test compound was represented by a relative value to the control, 1.

T1 sequence (P00742 235-488 limits assumed): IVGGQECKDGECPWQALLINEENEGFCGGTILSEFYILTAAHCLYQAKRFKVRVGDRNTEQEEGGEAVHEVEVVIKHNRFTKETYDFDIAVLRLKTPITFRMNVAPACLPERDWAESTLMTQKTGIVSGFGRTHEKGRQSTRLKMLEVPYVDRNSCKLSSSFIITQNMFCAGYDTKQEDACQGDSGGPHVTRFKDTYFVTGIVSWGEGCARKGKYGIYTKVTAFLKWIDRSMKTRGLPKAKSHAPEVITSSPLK
T1 sequence (P00742 41-179 partner limits assumed): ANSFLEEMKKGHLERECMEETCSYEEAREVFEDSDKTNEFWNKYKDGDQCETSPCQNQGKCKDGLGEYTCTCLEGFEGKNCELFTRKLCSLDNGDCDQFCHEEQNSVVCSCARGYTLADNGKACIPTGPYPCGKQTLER

IC50 (human factor Xa) [nM]	SMILES	CT2 value (the concentration for 2-fold prolongation of the coagulation time with DMSO) (human plasma) [µM]	coagulation time prolonging activity (relative value to the control, 1) (mouse plasma) [times]
6.7	Cl.Cn1ccc(=O)c(-c2ccc(C(=O)Nc3c(O)cccc3C(=O)Nc3ccc(Cl)cn3)cc2)c1 [Example 1, N-(5-chloropyridin-2-yl)-3-hydroxy-2-{[4-(1-methyl-4-oxo-1,4-dihydropyridin-3-yl)benzoyl]amino}benzamide hydrochloride]	0.34	
	CN(C)CCn1cccc(-c2ccc(C(=O)Nc3c(O)cccc3C(=O)Nc3ccc(Cl)cn3)cc2)c1=O.Cl [Example 10]		3.3
8.3	Cn1cccc(-c2ccc(C(=O)Nc3c(O)cccc3C(=O)Nc3ccc(Cl)cn3)cc2)c1=O [Example 30]		
	Cl.O=C(Nc1c(O)cccc1C(=O)Nc1ccc(Cl)cn1)c1ccc(-c2cccn(CCN3CCCOCC3)c2=O)cc1 [Example 42]	0.65	
	CN1CCC(OCCn2cccc(-c3ccc(C(=O)Nc4c(O)cc(Cl)cc4C(=O)Nc4ccc(Cl)cn4)cc3)c2=O)CC1.Cl [Example 78]		3.9
